Experiments:
[1] = target: T1, IKZF2 (Homo sapiens, UniProt Q96SW2+Q9UKS7); assay: Western blot degradation of IKZF2 in hPBMCs (24 h); type: cell-based; conditions: compounds at 50 nM and 500 nM
T1 construct: The supernatant was aspirated as the extracted total cell protein; endogenous in cells; host or cells: human peripheral blood mononuclear cells (hPBMCs)
Method in brief: (§1)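 Immunoblot densitometry quantifies target loss in hPBMCs after a 24 h compound exposure (50 nM, 500 nM). Percent remaining is normalised band intensity; DC50 is the concentration giving half the DMSO-control band grayscale.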

[2] = target: T2, IKZF1 (Homo sapiens, UniProt Q13422+Q96SW2); assay: Western blot degradation of IKZF1 in hPBMCs (24 h); type: cell-based; conditions: compounds at 50 nM and 500 nM
T2 construct: The supernatant was aspirated as the extracted total cell protein; endogenous in cells; host or cells: human peripheral blood mononuclear cells (hPBMCs)
Method in brief: as §1

[3] = test system: MV-4-11 cells; assay: Inhibition of proliferation of myeloid monocytic leukemia cells MV-4-11 (cell viability assay, 96 h); type: cell-based, human; conditions: read-out: inhibitory activity (IC50) against tumor cells proliferation, MV-4-11
Procedure: The tumor cells used herein were cultured in a cell culture medium listed in table 2 at 37 °C in an incubator with 5% CO2. Prior to experimentation, all cell lines used were correctly identified by STR profiling, and tested negative for Mycoplasma contamination using a Mycoplasma detection kit through routine screenings.
The IC50 values of the compounds of the present disclosure (including the compounds in Table 1, and Examples 1-498) were determined using the CellTiter-Meiluncell Luminescent Cell Viability Assay Kit from Dalian Meilun Biotech Co., Ltd. The detailed procedure is as follows: Tumor cells were seeded in 96-well cell culture plates at the densities specified in Table 3. On the following day, the test compounds of the present disclosure were subjected to serial dilution. […] Subsequently, 0.5 μL of the test compound dilution was transferred into the 96-well plate containing the cells, with each well containing 100 μL of cell culture medium. […] Into the 96-well plate, the diluted test compounds and corresponding detection reagents were added, resulting in final test compound concentrations of 500 nM and 10 nM, respectively. The experimental procedure is described below using the diluted 2 μM test compound as an example.
0.5 μL of the aforementioned diluted compound of the present disclosure (including the compounds in Table 1, and Examples 1-498) was added to the seeded cells in 100 μL of medium, yielding a final test compound concentration of 10 nM. After the cells were treated with the compounds of the present disclosure for a specified period, the cell viability assay reagent was added to the culture medium according to the kit's instructions to determine cell viability. […] All controls were treated using the same procedure as the compounds of the present disclosure. The growth inhibition curves for the compounds of the present disclosure were plotted using Prism GraphPad software, and the IC50 values were calculated therefrom.

[4] = target: T3, GSPT1 (Homo sapiens, UniProt P15170+Q96SW2); assay: Western blot degradation of GSPT1 in hPBMCs (24 h); type: cell-based; conditions: compounds at 50 nM and 500 nM
T3 construct: The supernatant was aspirated as the extracted total cell protein; endogenous in cells; host or cells: human peripheral blood mononuclear cells (hPBMCs)
Method in brief: as §1

[5] = target: T4, IKZF3 (Homo sapiens, UniProt Q96SW2+Q9UKT9); assay: Western blot degradation of IKZF3 in hPBMCs (24 h); type: cell-based; conditions: compounds at 50 nM and 500 nM
T4 construct: The supernatant was aspirated as the extracted total cell protein; endogenous in cells; host or cells: human peripheral blood mononuclear cells (hPBMCs)
Method in brief: as §1

[6] = target: T5, CK1α (Homo sapiens, UniProt P48729+Q96SW2); assay: Western blot degradation of CK1α in hPBMCs (24 h); type: cell-based; conditions: compounds at 50 nM and 500 nM
T5 construct: The supernatant was aspirated as the extracted total cell protein; endogenous in cells; host or cells: human peripheral blood mononuclear cells (hPBMCs)
Method in brief: as §1

[7] = target: T6, WEE1 (Homo sapiens, UniProt P30291+Q96SW2); assay: Western blot degradation of WEE1 in hPBMCs (24 h); type: cell-based; conditions: compounds at 50 nM and 500 nM
T6 construct: The supernatant was aspirated as the extracted total cell protein; endogenous in cells; host or cells: human peripheral blood mononuclear cells (hPBMCs)
Method in brief: as §1

[8] = test system: Jurkat cells; assay: Inhibition of proliferation of T lymphocytic leukemia cells Jurkat (cell viability assay, 96 h); type: cell-based, human; conditions: read-out: inhibitory activity (IC50) against tumor cells proliferation, Jurkat

T1 sequence (Q9UKS7 whole entry): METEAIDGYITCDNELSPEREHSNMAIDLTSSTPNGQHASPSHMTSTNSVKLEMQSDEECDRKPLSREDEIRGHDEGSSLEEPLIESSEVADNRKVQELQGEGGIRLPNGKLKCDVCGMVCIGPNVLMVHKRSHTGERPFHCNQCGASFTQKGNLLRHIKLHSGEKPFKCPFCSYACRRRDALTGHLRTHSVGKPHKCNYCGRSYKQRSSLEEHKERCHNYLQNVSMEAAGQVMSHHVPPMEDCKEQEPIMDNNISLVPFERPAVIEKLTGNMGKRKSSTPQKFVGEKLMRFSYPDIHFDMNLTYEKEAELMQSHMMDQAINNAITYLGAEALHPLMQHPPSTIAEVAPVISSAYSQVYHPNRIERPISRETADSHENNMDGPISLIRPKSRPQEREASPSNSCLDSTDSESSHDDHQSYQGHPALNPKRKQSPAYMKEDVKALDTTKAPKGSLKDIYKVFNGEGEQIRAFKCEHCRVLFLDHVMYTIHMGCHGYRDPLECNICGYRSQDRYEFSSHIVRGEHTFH
T1 sequence (Q96SW2 whole entry): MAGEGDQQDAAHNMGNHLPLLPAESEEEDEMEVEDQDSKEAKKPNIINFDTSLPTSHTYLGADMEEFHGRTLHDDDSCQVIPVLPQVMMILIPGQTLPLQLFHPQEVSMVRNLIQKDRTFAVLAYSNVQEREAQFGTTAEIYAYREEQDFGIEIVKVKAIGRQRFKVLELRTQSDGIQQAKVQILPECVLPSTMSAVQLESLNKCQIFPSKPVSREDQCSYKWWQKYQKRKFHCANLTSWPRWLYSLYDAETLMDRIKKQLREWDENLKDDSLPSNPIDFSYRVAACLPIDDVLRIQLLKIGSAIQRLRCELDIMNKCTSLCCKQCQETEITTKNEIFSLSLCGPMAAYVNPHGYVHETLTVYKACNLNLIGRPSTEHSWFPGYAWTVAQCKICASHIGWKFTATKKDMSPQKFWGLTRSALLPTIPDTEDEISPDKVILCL
T1 sequence (Q16531 whole entry partner): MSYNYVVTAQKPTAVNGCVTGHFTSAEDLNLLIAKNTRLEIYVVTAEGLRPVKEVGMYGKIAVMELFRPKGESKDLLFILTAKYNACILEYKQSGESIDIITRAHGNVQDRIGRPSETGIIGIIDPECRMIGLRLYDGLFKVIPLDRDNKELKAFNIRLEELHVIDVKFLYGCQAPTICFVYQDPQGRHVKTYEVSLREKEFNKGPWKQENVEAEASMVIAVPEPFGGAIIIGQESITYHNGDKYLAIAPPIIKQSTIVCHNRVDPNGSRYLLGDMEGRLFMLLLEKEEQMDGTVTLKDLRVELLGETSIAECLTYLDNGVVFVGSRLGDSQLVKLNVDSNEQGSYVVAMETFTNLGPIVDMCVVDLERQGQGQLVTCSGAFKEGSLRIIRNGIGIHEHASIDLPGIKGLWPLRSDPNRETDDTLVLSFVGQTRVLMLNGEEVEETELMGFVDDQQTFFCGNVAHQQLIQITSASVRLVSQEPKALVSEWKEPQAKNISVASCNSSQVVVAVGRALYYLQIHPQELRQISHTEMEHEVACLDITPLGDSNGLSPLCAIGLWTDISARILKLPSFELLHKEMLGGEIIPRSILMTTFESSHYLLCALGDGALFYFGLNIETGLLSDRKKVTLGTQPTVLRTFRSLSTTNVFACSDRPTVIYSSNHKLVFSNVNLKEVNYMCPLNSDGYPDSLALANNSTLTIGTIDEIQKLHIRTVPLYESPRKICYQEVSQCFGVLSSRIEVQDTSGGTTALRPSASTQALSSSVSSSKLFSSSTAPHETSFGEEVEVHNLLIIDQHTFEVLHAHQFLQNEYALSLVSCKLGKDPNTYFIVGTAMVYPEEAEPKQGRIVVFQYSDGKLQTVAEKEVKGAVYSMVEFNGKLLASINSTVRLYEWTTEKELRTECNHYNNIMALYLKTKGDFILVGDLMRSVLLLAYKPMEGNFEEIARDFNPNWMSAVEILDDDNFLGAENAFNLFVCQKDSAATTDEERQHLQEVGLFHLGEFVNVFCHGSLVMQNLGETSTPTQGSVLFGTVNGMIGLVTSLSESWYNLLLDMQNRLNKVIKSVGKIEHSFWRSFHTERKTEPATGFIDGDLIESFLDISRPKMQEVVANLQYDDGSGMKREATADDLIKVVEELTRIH
T4 sequence (Q9UKT9 whole entry): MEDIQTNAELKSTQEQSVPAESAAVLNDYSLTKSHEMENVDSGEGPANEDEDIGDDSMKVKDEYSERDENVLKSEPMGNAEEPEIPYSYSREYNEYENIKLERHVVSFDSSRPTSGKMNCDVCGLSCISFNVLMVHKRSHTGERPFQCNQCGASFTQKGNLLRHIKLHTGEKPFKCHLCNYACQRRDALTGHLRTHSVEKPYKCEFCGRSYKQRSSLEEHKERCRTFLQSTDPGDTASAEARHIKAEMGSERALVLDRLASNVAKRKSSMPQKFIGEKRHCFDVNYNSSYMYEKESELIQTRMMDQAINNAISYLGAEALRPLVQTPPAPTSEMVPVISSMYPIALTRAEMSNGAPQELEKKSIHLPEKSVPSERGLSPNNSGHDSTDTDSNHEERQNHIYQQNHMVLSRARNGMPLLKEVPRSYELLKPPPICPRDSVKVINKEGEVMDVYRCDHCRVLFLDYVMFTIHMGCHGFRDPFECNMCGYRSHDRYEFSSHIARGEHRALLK
T4 sequence (Q96SW2 whole entry): as the sequence (Q96SW2 whole entry) above
T4 sequence (Q16531 whole entry partner): as the sequence (Q16531 whole entry partner) above
T3 sequence (P15170 whole entry): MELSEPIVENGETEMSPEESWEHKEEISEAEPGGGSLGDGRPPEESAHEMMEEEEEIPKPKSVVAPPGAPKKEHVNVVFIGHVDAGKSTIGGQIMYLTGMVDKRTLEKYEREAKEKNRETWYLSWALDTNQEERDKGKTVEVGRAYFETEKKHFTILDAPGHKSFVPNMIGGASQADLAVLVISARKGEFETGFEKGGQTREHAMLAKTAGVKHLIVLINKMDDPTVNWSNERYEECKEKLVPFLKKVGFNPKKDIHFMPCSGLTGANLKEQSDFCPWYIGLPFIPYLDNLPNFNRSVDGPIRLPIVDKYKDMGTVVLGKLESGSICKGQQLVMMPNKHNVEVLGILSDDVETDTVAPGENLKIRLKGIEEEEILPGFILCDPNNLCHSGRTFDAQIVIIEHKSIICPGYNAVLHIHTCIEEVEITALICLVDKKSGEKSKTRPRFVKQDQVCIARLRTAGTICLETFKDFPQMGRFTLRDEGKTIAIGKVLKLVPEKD
T3 sequence (Q96SW2 whole entry): as the sequence (Q96SW2 whole entry) above
T3 sequence (Q16531 whole entry partner): as the sequence (Q16531 whole entry partner) above
T2 sequence (Q13422 whole entry): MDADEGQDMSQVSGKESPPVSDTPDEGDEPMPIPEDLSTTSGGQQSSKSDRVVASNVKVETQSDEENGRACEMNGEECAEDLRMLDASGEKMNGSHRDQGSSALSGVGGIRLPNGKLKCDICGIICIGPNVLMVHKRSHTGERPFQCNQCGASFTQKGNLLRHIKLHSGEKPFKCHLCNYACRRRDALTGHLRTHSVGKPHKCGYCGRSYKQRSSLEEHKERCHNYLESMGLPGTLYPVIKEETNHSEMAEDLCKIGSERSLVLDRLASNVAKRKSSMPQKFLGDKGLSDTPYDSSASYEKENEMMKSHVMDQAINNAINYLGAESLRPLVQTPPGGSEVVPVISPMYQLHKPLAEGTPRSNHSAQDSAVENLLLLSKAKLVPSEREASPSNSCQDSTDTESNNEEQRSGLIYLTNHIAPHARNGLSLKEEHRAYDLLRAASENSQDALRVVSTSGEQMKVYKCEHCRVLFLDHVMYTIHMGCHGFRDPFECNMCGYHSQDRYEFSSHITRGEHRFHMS
T2 sequence (Q96SW2 whole entry): as the sequence (Q96SW2 whole entry) above
T2 sequence (Q16531 whole entry partner): as the sequence (Q16531 whole entry partner) above
T5 sequence (P48729 whole entry): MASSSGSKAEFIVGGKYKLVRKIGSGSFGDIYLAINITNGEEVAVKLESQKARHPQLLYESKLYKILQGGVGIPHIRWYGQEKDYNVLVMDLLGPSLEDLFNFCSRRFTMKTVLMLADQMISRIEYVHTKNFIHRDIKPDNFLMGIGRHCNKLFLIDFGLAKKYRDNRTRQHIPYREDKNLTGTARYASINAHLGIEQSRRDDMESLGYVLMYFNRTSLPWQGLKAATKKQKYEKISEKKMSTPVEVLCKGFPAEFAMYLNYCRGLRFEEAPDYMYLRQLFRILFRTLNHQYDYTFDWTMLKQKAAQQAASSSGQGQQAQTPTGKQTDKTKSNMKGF
T5 sequence (Q96SW2 whole entry): as the sequence (Q96SW2 whole entry) above
T5 sequence (Q16531 whole entry partner): as the sequence (Q16531 whole entry partner) above

SMILES	IKZF2 substrate protein remaining % [1]	IKZF1 substrate protein remaining % [2]	IC50 [3] [nM]	GSPT1 substrate protein remaining % [4]	IKZF3 substrate protein remaining % [5]	CK1α substrate protein remaining % [6]	WEE1 substrate protein remaining % [7]	IC50 [8] [nM]
O=C1CCN(N2Cc3cc(CN4CCN(c5ccccc5Br)CC4)ccc3C2=O)C(=O)N1 [GT-06766, 1-(5-((4-(2-bromophenyl)piperazin-1-yl)methyl)-1-oxoisoindolin-2-yl)dihydropyrimidine-2,4(1H,3H)-dione]	A (0% ≤ substrate protein remaining % ≤80%)	A (0% ≤ substrate protein remaining % ≤80%)	500 to 1000	A (0% ≤ substrate protein remaining % ≤80%)	A (0% ≤ substrate protein remaining % ≤80%)	A (0% ≤ substrate protein remaining % ≤80%)	A (0% ≤ substrate protein remaining % ≤80%)	–
Cc1cccc(N2CCN(Cc3ccc4c(c3)CN(N3CCC(=O)NC3=O)C4=O)CC2)c1 [GT-06770, 1-(1-oxo-5-((4-(m-tolyl)piperazin-1-yl)methyl)isoindolin-2-yl)dihydropyrimidine-2,4(1H,3H)-dione]	A (0% ≤ substrate protein remaining % ≤80%)	A (0% ≤ substrate protein remaining % ≤80%)	500 to 1000	A (0% ≤ substrate protein remaining % ≤80%)	A (0% ≤ substrate protein remaining % ≤80%)	A (0% ≤ substrate protein remaining % ≤80%)	A (0% ≤ substrate protein remaining % ≤80%)	500 to 1000
O=C1CCN(N2Cc3cc(CN4CCN(c5cc(Cl)ccc5Cl)CC4)ccc3C2=O)C(=O)N1 [GT-06773, 1-(5-((4-(2,5-dichlorophenyl)piperazin-1-yl)methyl)-1-oxoisoindolin-2-yl)dihydropyrimidine-2,4(1H,3H)-dione]	A (0% ≤ substrate protein remaining % ≤80%)	B (80%< substrate protein remaining % ≤100%)	100 to 300	A (0% ≤ substrate protein remaining % ≤80%)	A (0% ≤ substrate protein remaining % ≤80%)	A (0% ≤ substrate protein remaining % ≤80%)	A (0% ≤ substrate protein remaining % ≤80%)	–
O=C1CCN(N2Cc3cc(CN4CCN(c5cc(Cl)cc(Cl)c5)CC4)ccc3C2=O)C(=O)N1 [GT-06776, 1-(5-((4-(3,5-dichlorophenyl)piperazin-1-yl)methyl)-1-oxoisoindolin-2-yl)dihydropyrimidine-2,4(1H,3H)-dione]	A (0% ≤ substrate protein remaining % ≤80%)	B (80%< substrate protein remaining % ≤100%)	100 to 300	A (0% ≤ substrate protein remaining % ≤80%)	B (80%< substrate protein remaining % ≤100%)	A (0% ≤ substrate protein remaining % ≤80%)	A (0% ≤ substrate protein remaining % ≤80%)	500 to 1000
O=C1CCN(N2Cc3cc(CN4CCN(c5cccc(F)c5F)CC4)ccc3C2=O)C(=O)N1 [GT-06777, 1-(5-((4-(2,3-difluorophenyl)piperazin-1-yl)methyl)-1-oxoisoindolin-2-yl)dihydropyrimidine-2,4(1H,3H)-dione]	A (0% ≤ substrate protein remaining % ≤80%)	B (80%< substrate protein remaining % ≤100%)	300 to 500	A (0% ≤ substrate protein remaining % ≤80%)	B (80%< substrate protein remaining % ≤100%)	A (0% ≤ substrate protein remaining % ≤80%)	A (0% ≤ substrate protein remaining % ≤80%)	–
O=C1CCN(N2Cc3cc(CN4CCC(c5ccccc5)CC4)ccc3C2=O)C(=O)N1 [GT-06884, 1-(1-oxo-5-((4-phenylpiperidin-1-yl)methyl)isoindolin-2-yl)dihydropyrimidine-2,4(1H,3H)-dione]	B (80%< substrate protein remaining % ≤100%)	B (80%< substrate protein remaining % ≤100%)	500 to 1000	A (0% ≤ substrate protein remaining % ≤80%)	B (80%< substrate protein remaining % ≤100%)	B (80%< substrate protein remaining % ≤100%)	B (80%< substrate protein remaining % ≤100%)	–
O=C1CCN(N2Cc3cc(CN4CCC(c5cccc(Br)c5)CC4)ccc3C2=O)C(=O)N1 [GT-06885, 1-(5-((4-(3-bromophenyl)piperidin-1-yl)methyl)-1-oxoisoindolin-2-yl)dihydropyrimidine-2,4(1H,3H)-dione]	A (0% ≤ substrate protein remaining % ≤80%)	A (0% ≤ substrate protein remaining % ≤80%)	100 to 300	A (0% ≤ substrate protein remaining % ≤80%)	B (80%< substrate protein remaining % ≤100%)	B (80%< substrate protein remaining % ≤100%)	B (80%< substrate protein remaining % ≤100%)	–
O=C1CCN(N2Cc3cc(CN4CCC(c5cccc(C(F)(F)F)c5)CC4)ccc3C2=O)C(=O)N1 [GT-06892, 1-(1-oxo-5-((4-(3-(trifluoromethyl)phenyl)piperidin-1-yl)methyl)isoindolin-2-yl)dihydropyrimidine-2,4(1H,3H)-dione]	A (0% ≤ substrate protein remaining % ≤80%)	A (0% ≤ substrate protein remaining % ≤80%)	500 to 1000	A (0% ≤ substrate protein remaining % ≤80%)	B (80%< substrate protein remaining % ≤100%)	B (80%< substrate protein remaining % ≤100%)	B (80%< substrate protein remaining % ≤100%)	–
O=C1CCN(N2Cc3cc(CN4CCC(c5cccc(Cl)c5Cl)CC4)ccc3C2=O)C(=O)N1 [GT-06893, 1-(5-((4-(2,3-dichlorophenyl)piperidin-1-yl)methyl)-1-oxoisoindolin-2-yl)dihydropyrimidine-2,4(1H,3H)-dione]	A (0% ≤ substrate protein remaining % ≤80%)	A (0% ≤ substrate protein remaining % ≤80%)	100 to 300	A (0% ≤ substrate protein remaining % ≤80%)	B (80%< substrate protein remaining % ≤100%)	B (80%< substrate protein remaining % ≤100%)	B (80%< substrate protein remaining % ≤100%)	500 to 1000

— US20260356819A1, “OXOISOINDOLINYL-SUBSTITUTED […] DERIVATIVE AND USE THEREOF” (GLUETACS THERAPEUTICS (SHANGHAI) CO., LTD., priority 2023, published 2026)
